Reference: patent publication US12551173B2, “System and method for single-scan rest-stress cardiac PET” (The General Hospital Corporation, priority 2012, dated 2026)
“And” between values parts separate entries of the source, which are not always exact repeats. Identical values can stand only once.

Experiments:
myocardial blood flow = settings: intravenous infusion, from start of infusion; cited from earlier work
myocardium [1] = experiment: Kinetic analysis of clinical 18F-Flurpiridaz rest and stress PET, two-compartment tissue model, three subjects; format: in vivo, human; design: unit not given here
Method: To evaluate and compare the methods proposed in this work, simulation studies were performed based on the kinetic parameters derived from human studies conducted with ^18F-Flurpiridaz, formerly known as ^18F-BMS747158-02 (Lantheus Medical Imaging, North Billerica, MA). As a pyridazinone analog, ^18F-Flurpiridaz binds to the mitochondrial complex I with high affinity. The combination of high first pass extraction and complex I binding ensure a high uptake in the myocardium with long residence time, due to the high mitochondrial density in the myocardial wall. Data from a rat model have shown that ^18F-Flurpiridaz has an extraction fraction of greater than 90% over the physiological MBF range, which makes it an attractive perfusion tracer. Validation of MBF measured with ^18F-Flurpiridaz has been performed by Nekolla et al. in pigs by comparison to microsphere and ^13N-ammonia flow measurements.
As an example case, kinetic analysis was carried out based on ^18F-Flurpiridaz clinical data. ^18F-Flurpiridaz data was used to determine the local myocardial kinetics used in the simulations. […] In these studies, rest and stress imaging sessions were separated by at least 2 h. First, the rest and stress studies for each of the subjects were analyzed separately. […] For each subject, the acquired stress images were first aligned to the images of the rest study using the nonrigid image registration tool from SPM8 9 Ashburner, J., et al., Hum. Brain Mapp 7, 254-266, 1999). The LV and RV input functions for each subject and each study were extracted with generalized factor analysis on dynamic series (GFADS) (El Fakhri, G., et al., J. Nucl. Med. 46, 1264-1271, 2005; El Fakhri, G., et al., Med. Phys. 33, 1016-1024, 2006). The LV input function was used to approximate the plasma input function. No metabolite correction was performed. Because there is a 2-h gap between the rest and stress studies, the residual myocardial activity from the first tracer is mostly tracer bound to MC 1 and is nearly unaffected by the stressor. The rest and stress image volumes of the heart were segmented into 17 standard segments. Time-activity curves were calculated for each segment. The residual activity from the rest study was estimated and subtracted from the stress time-activity curve. Then, the kinetic parameters were estimated for each segment under the resting state with its 25-min time-activity curve. k3 was fixed as 0.026 (1/min) during the curve fitting. For the time-activity curve of the stress study, only data within the first 7.5 min were used in the curve fitting. After the parameters were estimated for all 17 segments, the cardiac flow reserve (CFR=K1,s/K1,r) of each segment was calculated. For the left anterior descending (LAD) territory, the segments with the two lowest CRF values were selected and the mean of each kinetic parameter was calculated from the estimated parameters of those two segments. The same calculation was repeated for right coronary artery (RCA) and left circumflex (LCX) as well. After two segments were picked for each territory, the kinetic parameters of the other 11 segments were averaged to compute the average kinetic parameters of the normal myocardium. The computation of the kinetic parameters of the normal myocardium, LAD, LCX, and RCA territories was performed separately for each subject. Table 1 summarizes kinetic parameters K1 and k2 estimated from the clinical ^18F-Flurpiridaz studies and used for Monte Carlo simulations.

myocardium [2] = experiment: 100-min dynamic 18F-Flurpiridaz PET in cynomolgus monkey, 2-compartment model fit; format: in vivo
From the text: Due to the relatively short measurements obtained in human studies, longer duration ^18F-Flurpiridaz measurements were made in a healthy 4.1-kg cynomolgus monkey. The animal was imaged under resting state and general anesthesia with 1%-2% isoflurane mixed with 100% oxygen. A 100-min dynamic ^18F-Flurpiridaz PET study, with 1.25 mCi injected dose, was acquired with a microPET P4 system from Concorde Microsystems, Inc. Images were reconstructed with filtered back-projection (FBP) into 24×5-s, 6×30-s, 5×60-s, and 18×300-s frames. The LV and RV input functions were extracted with GFADS. A region of interest was drawn over the myocardium and used to calculate the time-activity curve, which was then fitted to the standard four parameter, two-compartment model, with corrections for blood-to-tissue spillover in Eq. (3). Compartment model kinetic analysis tool (COMKAT) (Muzic Jr., R. F., et al., J. Nucl. Med. 42, 636-645, 2001; Fang, Y. H., et al., J. Nucl. Med. 51, 77-84, 2010) under MATLAB R2009a (Mathworks, Natick MA) was used to perform the nonlinear least squares for parameter estimation with the frame duration used as the statistical weight. After the kinetic parameters were estimated from the 100-min time-activity curve, the data were refit while progressively reducing the observation period. First, K1, k2, f1, and fRV were estimated as a function of study duration of the time-activity curves, ranging from 1 to 10 min. Due to the short measurement periods used, k3 and k4 were fixed to the values estimated by the 100-min data. The parameter variance of each parameter was approximated by the covariance matrix from the nonlinear least squares fitting. Then, the duration of the time-activity curve was fixed to 10 min and estimation of K1, k2, f1, and fRV was repeated with k3 fixed at values ranging from 0 to 0.1, incremented by 0.005. k4 was fixed as the value derived from fitting the 100-min data. Again, variance of each estimated parameter was approximated by the covariance matrix.
Still another aspect of the present system and methods includes ^18F-Flurpiridaz myocardial blood flow estimation using dynamic PET in non-human primates. To evaluate the parameter precision when estimating the MBF, a long dynamic study was conducted on a 4.1-kg cynomolgus monkey and the MBF precision was examined with different durations of data being used for kinetic modeling. A dynamic ^18F-Flurpiridaz imaging study was performed on a microPET P4. The animal was imaged under the resting state for 100 minutes with an injected dose of 1.25 mCi. […] The LV (FIGS. 11A-11B) and RV input function were extracted with GFADS. Time-activity curve from a region of interest drawn over the myocardium was fitted to the 2-compartment model. The estimated parameters are: K1=0.51 (SD=1.5%), k2=0.075 (SD=4.7%), k3=0.026 (SD=10.2%) and k4=0.016 (SD=10.4%). […] To evaluate the precision of K1 and k2, different study durations were used, ranging from one minute to 10 minutes to estimate K1 and k2 (with k3 and k4 fixed) as plotted for K1 in FIG. 14B.

myocardium [3] = experiment: Tracer properties in the two-tissue compartment model (extraction, binding ratio); format: in vivo
From the text: In another aspect, a flow measurement strategy incorporates knowledge of the basic properties of partially trapped tracers with a two-tissue compartment model, allowing simplifications appropriate to quantitative flow measurements. In this model the tracer can be in one of two states, either free, as the injected molecule, or bound to a receptor. In the example case of ^18F-Flurpiridaz, previous studies have shown that it binds to the mitochondrial complex I. The product of plasma concentration (Cr) and transport rate K1 is the force driving tracer from capillary plasma to the free space. Symbolically, K1 is the plasmato-tissue transport rate, FE, the product of flow F and the unidirectional capillary extraction fraction, E. k2 is a rate constant summarizing the egress from tissue to plasma. The rate constants k3 and k4 provide a summary description of binding and release of tracer. The full operational equation for the two compartment model is well known. In one aspect a focus is directed to the first few minutes after IV injection. […] Second, the ratio k3/(k2+k3), is between 0.2-0.6, meaning that after the first few minutes of scanning, about half the tracer entering the tissue space is bound and the effect of binding must be considered when interpreting the data. Third, it has been shown that at least an hour of scanning is required to obtain good estimates of all parameters. […]

myocardium [4] = settings: rat model, over the physiological MBF range; cited from earlier work
myocardium [5] = settings: cited from earlier work
mitochondrial complex I = settings: cited from earlier work
[6] = Subject 1, LAD territory, Stress
[7] = Subject 1, LCX territory, Stress
[8] = Subject 1, Normal myocardium, Rest
[9] = Subject 1, Normal myocardium, Stress
[10] = Subject 1, RCA territory, Stress
[11] = Subject 2, LAD territory, Stress
[12] = Subject 2, LCX territory, Stress
[13] = Subject 2, Normal myocardium, Rest
[14] = Subject 2, Normal myocardium, Stress
[15] = Subject 2, RCA territory, Stress
[16] = Subject 3, LAD territory, Stress
[17] = Subject 3, LCX territory, Stress
[18] = Subject 3, Normal myocardium, Rest
[19] = Subject 3, Normal myocardium, Stress
[20] = Subject 3, RCA territory, Stress
[21] = resting state, 100 minutes of data, 1.25 mCi

Which “time to reach the peak hyperemia” value (myocardial blood flow) does the source give for OCCN(CCO)c1nc(N2CCCCC2)c2nc(N(CCO)CCO)nc(N3CCCCC3)c2n1 [dipyridamole] here?
Its value is 6.5 min.

Which results are given for CC(C)(C)n1ncc(OCc2ccc(COCCF)cc2)c(Cl)c1=O [18F-Flurpiridaz]?
K1 (myocardium [1]; Subject 1, LAD territory, Rest): 0.56; k2 (myocardium [1]; Subject 1, LAD territory, Rest): 0.07; K1 (myocardium [1]; [6]): 1.04; k2 (myocardium [1]; [6]): 0.05; K1 (myocardium [1]; Subject 1, LCX territory, Rest): 0.58; k2 (myocardium [1]; Subject 1, LCX territory, Rest): 0.08; K1 (myocardium [1]; [7]): 0.99; k2 (myocardium [1]; [7]): 0.05; K1 (myocardium [1]; [8]): 0.68; k2 (myocardium [1]; [8]): 0.08; K1 (myocardium [1]; [9]): 1.96; k2 (myocardium [1]; [9]): 0.07; K1 (myocardium [1]; Subject 1, RCA territory, Rest): 0.74; k2 (myocardium [1]; Subject 1, RCA territory, Rest): 0.08; K1 (myocardium [1]; [10]): 1.26; k2 (myocardium [1]; [10]): 0.08; K1 (myocardium [1]; Subject 2, LAD territory, Rest): 0.78; k2 (myocardium [1]; Subject 2, LAD territory, Rest): 0.11; K1 (myocardium [1]; [11]): 1.60; k2 (myocardium [1]; [11]): 0.07; K1 (myocardium [1]; Subject 2, LCX territory, Rest): 0.94; k2 (myocardium [1]; Subject 2, LCX territory, Rest): 0.13; K1 (myocardium [1]; [12]): 2.10; k2 (myocardium [1]; [12]): 0.10; K1 (myocardium [1]; [13]): 0.738 and 0.74; k2 (myocardium [1]; [13]): 0.108 and 0.11; K1 (myocardium [1]; [14]): 2.292 and 2.29; k2 (myocardium [1]; [14]): 0.118 and 0.12; K1 (myocardium [1]; Subject 2, RCA territory, Rest): 0.68; k2 (myocardium [1]; Subject 2, RCA territory, Rest): 0.08; K1 (myocardium [1]; [15]): 1.43; k2 (myocardium [1]; [15]): 0.11; K1 (myocardium [1]; Subject 3, LAD territory, Rest): 0.64; k2 (myocardium [1]; Subject 3, LAD territory, Rest): 0.04; K1 (myocardium [1]; [16]): 1.58; k2 (myocardium [1]; [16]): 0.18; K1 (myocardium [1]; Subject 3, LCX territory, Rest): 0.69; k2 (myocardium [1]; Subject 3, LCX territory, Rest): 0.05; K1 (myocardium [1]; [17]): 1.61; k2 (myocardium [1]; [17]): 0.24; K1 (myocardium [1]; [18]): 0.60; k2 (myocardium [1]; [18]): 0.05; K1 (myocardium [1]; [19]): 2.09; k2 (myocardium [1]; [19]): 0.23; K1 (myocardium [1]; Subject 3, RCA territory, Rest): 0.58; k2 (myocardium [1]; Subject 3, RCA territory, Rest): 0.03; K1 (myocardium [1]; [20]): 0.68; k2 (myocardium [1]; [20]): 0.17; estimated K1 as a function of the nominal value of k3 (myocardium [2]; rest state, k3 fixed at values between 0 and 0.1 min^-1 (FIG. 2B)): 0.498 to 0.507; K1 (myocardium [2]; [21]): 0.51 (SD=1.5%); k2 (myocardium [2]; [21]): 0.075 (SD=4.7%); k3 (myocardium [2]; [21]): 0.026 (SD=10.2%); k4 (myocardium [2]; [21]): 0.016 (SD=10.4%); ratio k3/(k2+k3) (myocardium [3]): 0.2-0.6; extraction fraction (myocardium [4]): greater than 90%; unidirectional extraction fraction (myocardium [5]; at all physiological flow rates): greater than 90%; first-pass extraction (myocardium [5]; in the coronary circulation): nearly complete; binding to mitochondrial complex I (mitochondrial complex I): high affinity

For Nc1ncnc2c1ncn2[C@@H]1O[C@H](CO)[C@@H](O)[C@H]1O [adenosine], which “time to reach the peak hyperemia” value (myocardial blood flow) is on record?
The value was 1.5 min.
